Measurements from patent US20050090522A1 (priority 2001, published 2005).
Read-outs that look alike come from different tables or passages of the source.

System: HIV-1
Test: HIV-1 single-round infectious luciferase reporter virus (pseudotype) assay in HeLa CD4 CCR5 cells
Assay type: cell-based
Outline: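 HeLa CD4 CCR5 cells (5×10^4/well, DMEM + 10% FBS) were treated with compound (final <10 μM) and infected with single-round luciferase reporter virus made in 293 cells, at MOI ~0.01. Luciferase was read 72 h post infection. EC50 came from 10-concentration percent-inhibition curves fitted to a four-parameter logistic model.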

[1] = Human immunodeficiency virus 1, HeLa-CD4/CCR5, read-out: EC50 Group from TABLE 1, HeLa CD4 CCR5 cells, single-round infectious luciferase reporter virus
[2] = Human immunodeficiency virus 1, HeLa-CD4/CCR5, read-out: EC50 Group from Table 1, Table 2-1, HeLa CD4 CCR5 cells, single-round luciferase reporter virus
[3] = Human immunodeficiency virus 1, HeLa-CD4/CCR5, read-out: EC50 Group from Table 1, Table 4, HeLa CD4 CCR5 cells, single-round luciferase reporter virus

| Structure (SMILES) | EC50 [1] [µM] | further results |
| --- | --- | --- |
| COc1cnc(-n2ccc(C(C)C)n2)c2[nH]cc(C(=O)C(=O)N3CCN(C(=O)c4ccccc4)CC3)c12 [Example 249, 1-benzoyl-4-[(4-methoxy-7-(3-iso-propyl-pyrazol-1-yl)-6-azaindol-3-yl)-oxoacetyl]piperazine] | < 1 | – |
| COc1cnc(-c2cnc(N3CCNCC3)cn2)c2[nH]cc(C(=O)C(=O)N3CCN(C(=O)c4ccccc4)CC3)c12 [Example 177, 1-benzoyl-4-[(4-methoxy-7-(2-(N-piperazinyl)-pyrazin-5-yl)-6-azaindol-3-yl)-oxoacetyl]piperazine] | < 1 | – |
| C[C@@H]1CN(C(=O)c2ccccc2)CCN1C(=O)C(=O)c1c[nH]c2c(-c3cccc(O)n3)nccc12 [Example 123] | < 1 | – |
| O=C(C(=O)N1CCN(C(=O)c2ccccc2)CC1)c1c[nH]c2c(-c3c[nH]c(=O)cn3)ncc(Cl)c12 [Example 149] | < 1 | – |
| C[C@@H]1CN(C(=O)c2ccccc2)CCN1C(=O)C(=O)c1c[nH]c2c(-c3ccc(O)nc3)nccc12 [Example 122] | < 1 | – |
| COc1cnc(-c2ccc(S(C)(=O)=O)cc2)c2[nH]cc(C(=O)C(=O)N3CCN(C(=O)c4ccccn4)[C@H](C)C3)c12 [Example 268] | – | EC50 [2]: < 1 µM |
| COc1cnc(-c2cnc(NS(C)(=O)=O)cn2)c2[nH]cc(C(=O)C(=O)N3CCN(C(=O)c4ccccc4)CC3)c12 [Example 47] | < 1 | – |
| COc1cnc(-n2ccc(C(F)(F)F)n2)c2[nH]cc(C(=O)C(=O)N3CCN(C(=O)c4ccccc4)[C@H](C)C3)c12 [Example 244, (R)-1-benzoyl-2-methyl-4-[(4-methoxy-7-(3-trifluoromethyl-pyrazol-1-yl)-6-azaindol-3-yl)-oxoacetyl]piperazine] | – | EC50 [2]: < 1 µM |
| COc1cnc(-c2ccc3[nH]ccc3c2)c2[nH]cc(C(=O)C(=O)N3CCN(C(=O)c4ccccn4)CC3)c12 [Example 172, 1-picolinoyl-4-[(4-methoxy-7-(indol-5-yl)-6-azaindol-3-yl)-oxoacetyl]piperazine] | < 1 | – |
| CC(C)Cc1ncc(-c2nccc3c(C(=O)C(=O)N4CCN(C(=O)c5ccccc5)CC4)c[nH]c23)s1 [Example 89, 1-benzoyl-4-[(7-(2-isobutyl-thiazol-5-yl)-6-azaindol-3-yl)-oxoacetyl]piperazine] | < 1 | – |
| C[C@@H]1CN(C(=O)c2ccccn2)CCN1C(=O)C(=O)c1c[nH]c2c(-c3cncs3)nccc12 [Example 109, (R)-1-picolinoyl-3-methyl-4-[(7-(thiazol-5-yl)-6-azaindol-3-yl)-oxoacetyl]piperazine] | < 1 | – |
| C[C@@H]1CN(C(=O)c2ccccc2)CCN1C(=O)C(=O)c1c[nH]c2c(-c3ccco3)nccc12 [Example 6, 1-benzoyl-3-®-methyl-4-[(7-(furan-2-yl)-6-azaindol-3-yl)-oxoacetyl]piperazine] | < 1 | – |
| C[C@H]1CN(C(=O)c2ccccn2)CCN1C(=O)C(=O)c1c[nH]c2c(-c3cc4ccccc4o3)nccc12 [Example 108, (S)-1-picolinoyl-3-methyl-4-[(7-(benzofuran-2-yl)-6-azaindol-3-yl)-oxoacetyl]piperazine] | < 1 | – |
| COc1cnc(-c2cc3ccncc3o2)c2[nH]cc(C(=O)C(=O)N3CCN(C(=O)c4ccccc4)CC3)c12 [Example 104, 1-benzoyl-4-[(4-methoxy-7-(6-aza-benzofuran-2-yl)-6-azaindol-3-yl)-oxoacetyl]piperazine] | < 1 | – |
| COc1cnc(-n2ccc(C3=CCCCC3)n2)c2[nH]cc(C(=O)C(=O)N3CCN(C(=O)c4ccccc4)CC3)c12 [Example 278, 1-benzoyl-4-[(4-methoxy-7-(3-(cyclohexen-1-yl)-pyrazol-1-yl)-6-azaindol-3-yl)-oxoacetyl]piperazine] | < 1 | – |
| COc1cnc(-n2ccc(C(C)n3cncn3)n2)c2[nH]cc(C(=O)C(=O)N3CCN(C(=O)c4ccccc4)[C@H](C)C3)c12 (some centres unmarked) [Example 265] | – | EC50 [2]: < 1 µM |
| COc1cnc(-c2ncc(OC)c3c(C(=O)C(=O)N4CCN(C(=O)c5ccccn5)CC4)c[nH]c23)cn1 [Example 182, 1-picolinoyl-4-[(4-methoxy-7-(2-methoxy-pyrazin-5-yl)-6-azaindol-3-yl)-oxoacetyl]piperazine] | < 1 | – |
| COc1cnc(-c2ccc(C(=O)O)o2)c2[nH]cc(C(=O)C(=O)N3CCN(C(=O)c4ccccc4)CC3)c12 [Example 87, 1-benzoyl-4-[(4-methoxy-7-(2-hydroxycarbonyl-furan-5-yl)-6-azaindol-3-yl)-oxoacetyl]piperazine] | < 1 | – |
| C[C@@H]1CN(C(=O)c2ccccc2)CCN1C(=O)C(=O)c1c[nH]c2c(-c3cc4ccccc4s3)ccnc12 [Example 127] | – | EC50 [3]: < 1 µM |

| Structure (SMILES) | EC50 [1] [µM] | further results |
| --- | --- | --- |
| C[C@@H]1CN(C(=O)c2ccccc2)CCN1C(=O)C(=O)c1c[nH]c2c(-c3nccs3)nccc12 [Example 20, 1-benzoyl-3-(R)-methyl-4-[(7-(thiazol-2-yl)-6-azaindol-3-yl)oxoacetyl]piperazine] | < 1 | – |
| COc1cnc(-c2cccc(C)n2)c2[nH]cc(C(=O)C(=O)N3CCN(C(=O)c4ccccc4)CC3)c12 [Example 76, 1-benzoyl-4-[(4-methoxy-7-(2-methyl-pyridin-6-yl)-6-azaindol-3-yl)-oxoacetyl]piperazine] | < 1 | – |
| CCOC(=O)c1ccc(OCc2ccn(-c3ncc(OC)c4c(C(=O)C(=O)N5CCN(C(=O)c6ccccc6)CC5)c[nH]c34)n2)cc1 [Example 285, 1-benzoyl-4-[(4-methoxy-7-(3-(4-ethoxycarbonyl-phenyl)oxymethyl-pyrazol-1-yl)-6-azaindol-3-yl)-oxoacetyl]piperazine] | < 1 | – |
| COc1cnc(Nc2ccccn2)c2[nH]cc(C(=O)C(=O)N3CCN(C(=O)c4ccccc4)CC3)c12 [Example 330] | < 1 | – |
| C[C@@H]1CN(C(=O)c2ccccc2)CCN1C(=O)C(=O)c1c[nH]c2nc(-c3nnn[nH]3)ccc12 [Example 56] | – | EC50 (Human immunodeficiency virus 1, HeLa-CD4/CCR5, 72 h, read-out: EC50 Group from Table 1, HeLa CD4 CCR5 cells, luciferase reporter virus, harvested 72 h after infection): 1 to 5 µM |
| COc1cnc(-c2cnc(-c3nccs3)s2)c2[nH]cc(C(=O)C(=O)N3CCN(C(=O)c4ccccc4)CC3)c12 [Example 92, 1-benzoyl-4-[(4-methoxy-7-(2-(thiazol-2-yl)-thiazol-5-yl)-6-azaindol-3-yl)-oxoacetyl]piperazine] | < 1 | – |
| O=C(C(=O)N1CCN(C(=O)c2ccccc2)CC1)c1c[nH]c2c(-c3cnccn3)nccc12 [Example 34, 1-benzoyl-4-[(7-(pyrazin-2-yl)-6-azaindol-3-yl)-oxoacetyl]piperazine] | < 1 | – |
| C[C@@H]1CN(C(=O)c2ccccc2)CCN1C(=O)C(=O)c1c[nH]c2c(-c3cncnc3)nccc12 [Example 16, 1-benzoyl-3-(R)-methyl-4-[(7-(pyrimidin-5-yl)-6-azaindol-3-yl)-oxoacetyl]piperazine] | < 1 | – |
| COc1cnc(-n2ccc(N)n2)c2[nH]cc(C(=O)C(=O)N3CCN(C(=O)c4ccccc4)[C@H](C)C3)c12 [Example 253, (R)-1-benzoyl-2-methyl-4-[(4-methoxy-7-(3-amino-pyrazol-1-yl)-6-azaindol-3-yl)-oxoacetyl]piperazine] | – | EC50 [2]: < 1 µM |
| COc1cnc(-c2cnc(C3CC3)cn2)c2[nH]cc(C(=O)C(=O)N3CCN(C(=O)c4ccccn4)CC3)c12 [Example 181, 1-picolinoyl-4-[(4-methoxy-7-(2-cyclopropanyl-pyrazin-5-yl)-6-azaindol-3-yl)-oxoacetyl]piperazine] | < 1 | – |
| O=C(C(=O)N1CCN(C(=O)c2ccccc2)CC1)c1c[nH]c2c(-n3cncn3)ncc(F)c12 [Example 215] | < 1 | – |
| COc1cnc(-n2ccc(-c3ccccc3)n2)c2[nH]cc(C(=O)C(=O)N3CCN(C(=O)c4ccccc4)[C@H](C)C3)c12 [Example 260, (R)-1-benzoyl-2-methyl-4-[(4-methoxy-7-(3-phenyl-pyrazol-1-yl)-6-azaindol-3-yl)-oxoacetyl]piperazine] | – | EC50 [2]: < 1 µM |
| COc1cnc(-c2ccnnc2)c2[nH]cc(C(=O)C(=O)N3CCN(C(=O)c4ccccc4)CC3)c12 [Example 23, l-benzoyl-4-[(4-methoxy-7-(pyridazin-4-yl)-6-azaindol-3-yl)-oxoacetyl]piperazine] | < 1 | – |
| CCc1n[nH]c(-c2ncc(OC)c3c(C(=O)C(=O)N4CCN(C(=O)c5ccccc5)[C@H](C)C4)c[nH]c23)n1 [Example 336] | – | EC50 [2]: < 1 µM |
| COc1cnc(-c2ccoc2)c2[nH]cc(C(=O)C(=O)N3CCN(C(=O)c4ccccc4)CC3)c12 [Example 81, 1-benzoyl-4-[(4-methoxy-7-(furan-3-yl)-6-azaindol-3-yl)-oxoacetyl]piperazine] | < 1 | – |
| C[C@@H]1CN(C(=O)c2ccccc2)CCN1C(=O)C(=O)c1c[nH]c2c(-c3cnco3)cc(Cl)nc12 [Example 63, 1-benzoyl-3-(R)-methyl-4-[(5-chloro-7-(oxazol-5-yl)-4-azaindol-3-yl)-oxoacetyl]piperazine] | – | EC50 [3]: < 1 µM |
| COc1cnc(-n2ccc(C(C)(C)C)n2)c2[nH]cc(C(=O)C(=O)N3CCN(C(=O)c4ccccc4)[C@H](C)C3)c12 [Example 243, (R)-1-benzoyl-2-methyl-4-[(4-methoxy-7-(3-t-butyl-pyrazol-1-yl)-6-azaindol-3-yl)-oxoacetyl]piperazine] | – | EC50 [2]: < 1 µM |
| CCOc1ncc(-c2ccnc3c(C(=O)C(=O)N4CCN(C(=O)c5ccccc5)C[C@H]4C)c[nH]c23)s1 [Example 54, 1-benzoyl-3-(R)-methyl-4-[(7-(2-ethoxy-thiazol-5-yl)-4-azaindol-3-yl)-oxoacetyl]piperazine] | – | EC50 [3]: < 1 µM |
| COc1cnc(-c2cncs2)c2[nH]cc(C(=O)C(=O)N3CCN(C(=O)c4ccccn4)CC3)c12 [Example 151, 1-picolinoyl-4-[(4-methoxy-7-(thiazol-5-yl)-6-azaindol-3-yl)-oxoacetyl]piperazine] | < 1 | – |
